In ChEMBL document CHEMBL5634199, “Novel Exatecan-Derived Topoisomerase-1 Inhibitors for Treating Cancer” (ACS Med Chem Lett, 2024):

system: JeKo-1; test: Antiproliferative activity against human JeKo-1 cells assessed as reduction in cell viability by Cell-Titer Glo luminescent assay; type: functional, cell-based

**Q.** How did the EC50 turn out when `CC[C@@]1(O)C(=O)OCc2c1cc1n(c2=O)Cc2c-1nc1cc(F)c(C)c3c1c2[C@@H](NC(=O)C(C)(O)CO)CC3` (stereo partly specified) was run?
**A.** Its EC50 is 1.2 nM.

**Q.** With `CC[C@@]1(O)C(=O)OCc2c1cc1n(c2=O)Cc2c-1nc1cc(F)c(C)c3c1c2[C@@H](NC(=O)C(F)(F)C(C)O)CC3` (stereo partly specified) as the compound, how does the EC50 read?
**A.** Its EC50 is 1.6 nM.

**Q.** For `CC[C@@]1(O)C(=O)OCc2c1cc1n(c2=O)Cc2c-1nc1cc(F)c(C)c3c1c2[C@@H](NC(=O)C(C)(N)C(F)(F)F)CC3` (stereo partly specified), which EC50 is on record?
**A.** The EC50 was 1.6 nM.

**Q.** With `CC[C@@]1(O)C(=O)OCc2c1cc1n(c2=O)Cc2c-1nc1cc(F)c(C)c3c1c2[C@@H](NC(=O)C(F)CO)CC3` (stereo partly specified) as the compound, how does the EC50 read?
**A.** The EC50 was 1.5 nM.

**Q.** How did the EC50 turn out when `CC[C@@]1(O)C(=O)OCc2c1cc1n(c2=O)Cc2c-1nc1cc(F)c(C)c3c1c2[C@@H](NC(=O)[C@@H](O)CO)CC3` was run?
**A.** Its EC50 is 1.4 nM.

**Q.** With `CC[C@@]1(O)C(=O)OCc2c1cc1n(c2=O)Cc2c-1nc1cc(F)c(C)c3c1c2[C@@H](NC(=O)[C@H](O)CCO)CC3` as the compound, how does the EC50 read?
**A.** The EC50 was 1.4 nM.
